Experimental data from patent US7498337B2, “Acid secretion inhibitor” (Takeda Pharmaceutical Company Limited, priority 2005, dated 2009).

Tests used:
[1] = biological target: T1, H+,K+-ATPase (gastric mucous membrane microsomal fraction) (Sus scrofa, UniProt P19156); test: Proton potassium-adenosine triphosphatase (H+,K+-ATPase) inhibitory activity test; type: biochemical; conditions: swine gastric microsomal fraction, pH 6.5, 37° C., 30 min preincubation
T1 construct: The obtained microsomal fraction was used as a proton, potassium-adenosine triphosphatase standard product; from tissue; host or cells: swine stomach, gastric mucous membrane microsomal fraction
Method: Proton Potassium-Adenosine Triphosphatase (H^+,K^+-ATPase) Inhibitory Activity Test According to the method [Biochim. Biophys. Acta, 728, 31 (1983)] of Wallmark et al., a gastric mucous membrane microsomal fraction was prepared from the stomach of swine. First, the stomach was removed, washed with tap water, immersed in 3 mol/L brine, and the surface of the mucous membrane was wiped with a paper towel. The gastric mucous membrane was detached, chopped, and homogenized in a 0.25 mol/L saccharose solution (pH 6.8) containing 1 mmol/L EDTA and 10 mmol/L tris-hydrochloric acid using polytron (Kinematica). The obtained homogenate was centrifuged at 20,000×g for 30 min and the supernatant was centrifuged at 100,000×g for 90 min. The precipitate was suspended in 0.25 mol/L saccharose solution, superimposed on a 0.25 mol/L saccharose solution containing 7.5% Ficoll, and centrifuged at 100,000×g for 5 hr. The fraction containing the interface between the both layers was recovered, and centrifugally washed with 0.25 mol/L saccharose solution. The obtained microsomal fraction was used as a proton, potassium-adenosine triphosphatase standard product. […] The enzyme reaction was started by adding 5 μL of a 2 mmol/L-adenosine triphosphate tris salt solution (50 mmol/L HEPES-tris buffer (5 mmol/L magnesium chloride, pH 6.5)). The enzyme reaction was carried out at 37° C. for 20 min, and 15 μL of a malachite green solution (0.12% malachite green solution in sulfuric acid (2.5 mol/L), 7.5% ammonium molybdate and 11% Tween 20 were mixed at a ratio of 100:25:2) was added to quench the reaction. […] In addition, the amount of the inorganic phosphoric acid in the reaction solution free of potassium chloride was measured in the same manner, which was subtracted from the inorganic phosphoric acid amount in the presence of potassium chloride to determine the proton, potassium-adenosine triphosphatase activity.

HepG2 cells = test: Intracellular ATP content in HepG2 cells (cytotoxicity); type: cell-based, human; conditions: HepG2, 30 μM, culture for one day, relative value to control, ATPLite, n≧3 average
Method: Human liver cancer-derived cell line HepG2 (ATCC No. HB-8065) was passaged using Dulbecco's Modified Eagle medium (DMEM; Invitrogen) containing 10% fetal bovine serum (FBS; TRACE SCIENTIFIC LTD.), 1 mmol/L sodium pyruvate (Invitrogen), 2 mmol/L L-glutamine (Invitrogen), 50 IU/mL penicillin (Invitrogen) and 50 μg/mL streptomycin (Invitrogen) at 5% CO2, 37° C. The test reagent was prepared with DMSO to 10 mM, and further diluted with DMEM medium containing 0.5% FBS, 1 mmol/L sodium pyruvate, 2 mmol/L L-glutamine, 50 IU/mL penicillin and 50 μg/mL streptomycin to a final concentration of DMSO of 0.1%. HepG2 (2×10^4 cells/well) was cultured on a 96 well white plate (Costar) with the test reagent at 5% CO2, 37° C. After culture for one day, the intracellular ATP content was measured using ATPLite™ (PerkinElmer Life Sciences). The results are shown in Table 24 (n≧3, average value±SD) as a relative value (%) to control (without addition of drug) at 30 μM.

T1 sequence (P19156 2-1034 limits assumed): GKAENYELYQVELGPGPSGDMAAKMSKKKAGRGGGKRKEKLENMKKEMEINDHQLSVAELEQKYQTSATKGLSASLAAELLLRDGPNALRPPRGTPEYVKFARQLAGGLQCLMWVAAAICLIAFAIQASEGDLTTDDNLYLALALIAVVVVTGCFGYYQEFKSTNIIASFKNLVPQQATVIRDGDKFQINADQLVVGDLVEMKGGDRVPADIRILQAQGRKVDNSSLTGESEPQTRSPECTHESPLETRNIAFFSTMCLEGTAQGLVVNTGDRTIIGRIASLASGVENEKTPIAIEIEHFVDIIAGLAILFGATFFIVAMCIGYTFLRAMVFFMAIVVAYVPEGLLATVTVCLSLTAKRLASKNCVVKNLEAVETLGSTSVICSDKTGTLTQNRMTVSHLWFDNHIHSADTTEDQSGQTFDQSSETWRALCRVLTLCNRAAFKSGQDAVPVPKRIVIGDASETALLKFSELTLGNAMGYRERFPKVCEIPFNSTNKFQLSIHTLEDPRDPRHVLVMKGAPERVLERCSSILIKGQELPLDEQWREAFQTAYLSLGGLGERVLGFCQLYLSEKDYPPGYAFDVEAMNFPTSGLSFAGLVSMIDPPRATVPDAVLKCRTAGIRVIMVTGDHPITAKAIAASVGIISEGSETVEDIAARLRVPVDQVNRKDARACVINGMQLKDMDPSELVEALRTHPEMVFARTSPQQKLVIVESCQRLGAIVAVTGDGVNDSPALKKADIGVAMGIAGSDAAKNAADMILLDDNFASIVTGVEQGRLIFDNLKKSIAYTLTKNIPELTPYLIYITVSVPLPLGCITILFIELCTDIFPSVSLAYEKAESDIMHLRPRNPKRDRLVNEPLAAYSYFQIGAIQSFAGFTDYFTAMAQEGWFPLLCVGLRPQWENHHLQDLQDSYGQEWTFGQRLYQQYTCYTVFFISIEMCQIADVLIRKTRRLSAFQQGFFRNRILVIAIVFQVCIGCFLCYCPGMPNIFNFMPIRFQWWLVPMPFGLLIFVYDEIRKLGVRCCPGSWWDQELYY
T1 sequence (P18434 whole entry partner): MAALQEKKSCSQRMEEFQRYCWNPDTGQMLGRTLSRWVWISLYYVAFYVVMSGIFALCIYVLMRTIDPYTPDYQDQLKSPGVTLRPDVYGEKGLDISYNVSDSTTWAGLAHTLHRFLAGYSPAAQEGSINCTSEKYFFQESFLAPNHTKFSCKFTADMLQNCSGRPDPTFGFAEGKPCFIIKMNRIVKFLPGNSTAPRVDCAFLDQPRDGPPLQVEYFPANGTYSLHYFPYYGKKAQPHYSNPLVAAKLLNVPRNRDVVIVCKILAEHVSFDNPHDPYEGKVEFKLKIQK

CNCc1cc(-c2ccccc2)n(S(=O)(=O)c2ccc(OC)nc2)c1.Cl [Example 2, 1-{1-[(6-methoxypyridin-3-yl)sulfonyl]-5-phenyl-1H-pyrrol-3-yl}-N-methylmethanamine hydrochloride]
IC50 [1]: 0.013 µM
ATP content (%, 30 μM) (HepG2 cells): 45.2%

CNCc1cc(-c2ccccc2)n(S(=O)(=O)c2cnc(NC)nc2)c1.Cl [Example 5, N-methyl-1-{1-[2-(methylamino)pyrimidin-5-ylsulfonyl]-5-phenyl-1H-pyrrol-3-yl}methanamine hydrochloride]
IC50 [1]: 0.065 µM
ATP content (%, 30 μM) (HepG2 cells): 73.9%

CNCc1cc(-c2ccccc2)n(S(=O)(=O)c2cnc(C)nc2)c1.Cl.Cl [Example 7, N-methyl-1-[1-(2-methylpyrimidin-5-ylsulfonyl)-5-phenyl-1H-pyrrol-3-yl]-methanamine dihydrochloride]
IC50 [1]: 0.034 µM
ATP content (%, 30 μM) (HepG2 cells): 76.5%

CNCc1cc(-c2ccccc2F)n(S(=O)(=O)c2cccnc2)c1.O=C(O)/C=C/C(=O)O [Example 8, 1-[5-(2-fluorophenyl)-1-(pyridin-3-ylsulfonyl)-1H-pyrrol-3-yl]-N-methylmethanamine fumarate]
IC50 [1]: 0.022 µM
ATP content (%, 30 μM) (HepG2 cells): 87.9%

CNCc1cc(-c2cscc2C)n(S(=O)(=O)c2cccnc2)c1.Cl.Cl [Example 29, N-methyl-1-[5-(4-methyl-3-thienyl)-1-(pyridin-3-ylsulfonyl)-1H-pyrrol-3-yl]methanamine dihydrochloride]
IC50 [1]: 0.041 µM
ATP content (%, 30 μM) (HepG2 cells): 71.5%

CNCc1cc(-c2ccc(F)cc2F)n(S(=O)(=O)c2cccnc2)c1.Cl.Cl [Example 32, 1-[5-(2,4-difluorophenyl)-1-(pyridin-3-ylsulfonyl)-1H-pyrrol-3-yl]-N-methylmethanamine dihydrochloride]
IC50 [1]: 0.0089 µM
ATP content (%, 30 μM) (HepG2 cells): 53.6%

CNCc1cn(S(=O)(=O)c2cccnc2)c(-c2ccccc2)c1F.Cl.Cl [Example 41, 1-[4-fluoro-5-phenyl-1-(pyridin-3-ylsulfonyl)-1H-pyrrol-3-yl]-N-methylmethanamine dihydrochloride]
IC50 [1]: 0.043 µM
ATP content (%, 30 μM) (HepG2 cells): 86.7%

CNCc1cc(-c2ccccc2F)n(S(=O)(=O)c2ccc(C)nc2)c1.Cl.Cl [Example 44, 1-{5-(2-fluorophenyl)-1-[(6-methylpyridin-3-yl)sulfonyl]-1H-pyrrol-3-yl}-N-methylmethanamine dihydrochloride]
IC50 [1]: 0.048 µM
ATP content (%, 30 μM) (HepG2 cells): 78.5%

CNCc1cc(-c2ccccc2C)n(S(=O)(=O)c2cccnc2)c1.O=C(O)/C=C/C(=O)O [Example 47, N-methyl-1-[5-(2-methylphenyl)-1-(pyridin-3-ylsulfonyl)-1H-pyrrol-3-yl]methanamine fumarate]
IC50 [1]: 0.058 µM
ATP content (%, 30 μM) (HepG2 cells): 81.8%

CNCc1cc(-c2cccnc2F)n(S(=O)(=O)c2cccnc2)c1.O=C(O)/C=C/C(=O)O [Example 74, 1-[5-(2-fluoropyridin-3-yl)-1-(pyridin-3-ylsulfonyl)-1H-pyrrol-3-yl]-N-methylmethanamine fumarate]
IC50 [1]: 0.21 µM
ATP content (%, 30 μM) (HepG2 cells): 95.2%
